Structures are written as SMILES. Some results are limits rather than exact numbers.

Assay [1] has as its target T1, beta-catenin/TCF4 engagement (Homo sapiens, UniProt P35222).
T1 construct: expressed in transfected cells; host or cells: HEK293
T1 sequence (P35222 1-781): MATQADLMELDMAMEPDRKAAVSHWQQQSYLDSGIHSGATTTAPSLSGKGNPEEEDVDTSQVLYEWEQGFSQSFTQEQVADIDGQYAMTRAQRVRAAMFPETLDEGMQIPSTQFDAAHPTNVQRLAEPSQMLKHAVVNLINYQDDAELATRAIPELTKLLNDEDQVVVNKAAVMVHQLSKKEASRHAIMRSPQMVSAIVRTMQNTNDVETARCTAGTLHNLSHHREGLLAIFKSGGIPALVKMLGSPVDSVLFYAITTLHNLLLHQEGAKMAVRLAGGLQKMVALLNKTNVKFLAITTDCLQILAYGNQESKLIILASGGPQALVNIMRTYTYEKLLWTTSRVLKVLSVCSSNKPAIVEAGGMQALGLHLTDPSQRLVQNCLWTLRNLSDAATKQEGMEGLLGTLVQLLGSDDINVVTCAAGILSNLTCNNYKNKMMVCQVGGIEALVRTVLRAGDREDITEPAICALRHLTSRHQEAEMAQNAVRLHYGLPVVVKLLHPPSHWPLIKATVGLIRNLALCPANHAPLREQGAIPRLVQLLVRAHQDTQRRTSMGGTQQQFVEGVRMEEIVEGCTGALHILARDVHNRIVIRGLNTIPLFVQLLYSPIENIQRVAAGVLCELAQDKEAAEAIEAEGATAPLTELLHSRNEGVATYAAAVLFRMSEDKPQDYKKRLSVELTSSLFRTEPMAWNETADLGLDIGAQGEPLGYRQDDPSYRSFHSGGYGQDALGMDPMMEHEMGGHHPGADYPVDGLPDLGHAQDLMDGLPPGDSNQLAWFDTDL
Description: Nano-BRET target engagement assay (B-cat-Halo & TCF4-Luc in HEK293 cells). It counts as cell-based. The conditions noted are these: absolute IC50; read-out: NanoBRET Abs IC50. On the technique in general: In BRET a luciferase serves as donor, and the signal depends on an acceptor being close.

Assay [2] addresses T2, full-length beta-Catenin (Uniprot ID P35222) (Homo sapiens, UniProt P35222).
T2 construct: 10 nM full-length beta-Catenin (Uniprot ID P35222)
T2 sequence (P35222 1-781): T1 sequence (P35222 1-781)
Description: Fluorescence polarization IC50 (beta-catenin / 5FAM-TCF4 10-53 competition). It is filed as binding. The note with it: fluorescence polarization; read-out: beta-Catenin FP IC50. (Polarisation of emitted light reports the rotation of a fluorescent probe.)

For the compound `CC(=O)N1CCC[C@]12CC=CCCCC1(CCCC=CCCCOC(=O)N3CC[C@@](C(=O)N[C@@H](Cc4ccsc4)C(=O)N[C@@H](Cc4csc5ccccc45)C(=O)N[C@@H](CCC(N)=O)C(N)=O)(C3)NC(=O)[C@H](CC(C)C)NC(=O)[C@H](Cc3ccccc3)NC(=O)[C@H](CCN3CCOCC3)NC(=O)[C@H](C)NC(=O)[C@H](CC(=O)O)NC(=O)[C@H](CC(=O)O)NC1=O)NC(=O)[C@H](CC(C)(C)C)NC(=O)[C@H](CC(=O)O)NC2=O` (stereo partly drawn) [I-1504, Ac-PL3-Asp-Npg-B5-Asp-Asp-Ala-MorphAbu-Phe-Leu-PyrS2-3Thi-BztA-Gln-NH2], the IC50 in assay [1] was more than 20000 nM; in assay [2], 46 nM.
With `CC(=O)N1CCC[C@]12CC=CCCCC1(CCCC=CCCCOC(=O)N3CC[C@@](C(=O)N[C@@H](Cc4ccsc4)C(=O)N[C@@H](Cc4csc5ccccc45)C(=O)N[C@@H](CCC(N)=O)C(N)=O)(C3)NC(=O)[C@H](CC(C)C)NC(=O)[C@H](Cc3ccccc3)NC(=O)[C@H](CCN3CCC(F)(F)CC3)NC(=O)[C@H](C)NC(=O)[C@H](CC(=O)O)NC(=O)[C@H](CC(=O)O)NC1=O)NC(=O)[C@H](CC(C)(C)C)NC(=O)[C@H](CC(=O)O)NC2=O` (stereo partly drawn) [I-1505, Ac-PL3-Asp-Npg-B5-Asp-Asp-Ala-F2PipAbu-Phe-Leu-PyrS2-3Thi-BztA-Gln-NH2], the IC50 in assay [1] was more than 20000 nM; in assay [2] it was 39 nM.
On to `CC(=O)N1CCC[C@]12CC=CCCCC1(CCCC=CCCCOC(=O)N3CC[C@@](C(=O)N[C@@H](Cc4ccsc4)C(=O)N[C@@H](Cc4csc5ccccc45)C(=O)N[C@@H](CCC(N)=O)C(N)=O)(C3)NC(=O)[C@H](CC(C)C)NC(=O)[C@H](Cc3ccccc3)NC(=O)[C@H](CC(=O)N3CCOCC3)NC(=O)[C@H](C)NC(=O)[C@H](CC(=O)O)NC(=O)[C@H](CC(=O)O)NC1=O)NC(=O)[C@H](CC(C)(C)C)NC(=O)[C@H](CC(=O)O)NC2=O` (stereo partly drawn) [I-1507, Ac-PL3-Asp-Npg-B5-Asp-Asp-Ala-MorphAsn-Phe-Leu-PyrS2-3Thi-BztA-Gln-NH2], for which the values for the IC50 in assay [1] and in assay [2] were more than 20000 nM and 30 nM, respectively.
In the case of `CC(=O)N1CCC[C@]12CC=CCCCC1(CCCC=CCCCOC(=O)N3CC[C@@](C(=O)N[C@@H](Cc4ccsc4)C(=O)N[C@@H](Cc4csc5ccccc45)C(=O)N[C@@H](CCO)C(N)=O)(C3)NC(=O)[C@H](CC(C)C)NC(=O)[C@H](Cc3ccccc3)NC(=O)[C@H](C)NC(=O)[C@H](C)NC(=O)[C@H](CC(=O)O)NC(=O)[C@H](CC(=O)O)NC1=O)NC(=O)[C@H](Cc1ccccc1)NC(=O)[C@H](CC(=O)O)NC2=O` (stereo partly drawn) [I-1510, Ac-PL3-Asp-Phe-B5-Asp-Asp-Ala-Ala-Phe-Leu-PyrS2-3Thi-BztA-Hse-NH2], the IC50 stood at 31800 nM in assay [1] and 10 nM in assay [2].
Take `CC(=O)N1CCC[C@]12CC=CCCCC1(CCCC=CCCCOC(=O)N3CC[C@@](C(=O)N[C@@H](Cc4ccsc4)C(=O)N[C@@H](Cc4csc5ccccc45)C(=O)N[C@@H](CCC(N)=O)C(N)=O)(C3)NC(=O)[C@H](CC(C)C)NC(=O)[C@H](Cc3ccccc3)NC(=O)[C@H](C)NC(=O)[C@H](C)NC(=O)[C@H](CC(=O)O)NC(=O)[C@H](CC(=O)O)NC1=O)NC(=O)[C@H](Cc1ccc(O)cc1)NC(=O)[C@H](CC(=O)O)NC2=O` (stereo partly drawn) [I-1511, Ac-PL3-Asp-Tyr-B5-Asp-Asp-Ala-Ala-Phe-Leu-PyrS2-3Thi-BztA-Gln-NH2]: the IC50 in assay [1] is more than 20000 nM; in assay [2], 5 nM.
For the compound `CC(=O)N1CCC[C@]12CC=CCCCC1(CCCC=CCCCOC(=O)N3CC[C@@](C(=O)N[C@@H](Cc4ccsc4)C(=O)N[C@@H](Cc4csc5ccccc45)C(=O)N[C@@H](CCO)C(N)=O)(C3)NC(=O)[C@H](CC(C)C)NC(=O)[C@H](Cc3ccccc3)NC(=O)[C@H](C)NC(=O)[C@H](C)NC(=O)[C@H](CC(=O)O)NC(=O)[C@H](CC(=O)O)NC1=O)NC(=O)[C@H](Cc1ccc(O)cc1)NC(=O)[C@H](CC(=O)O)NC2=O` (stereo partly drawn) [I-1512, Ac-PL3-Asp-Tyr-B5-Asp-Asp-Ala-Ala-Phe-Leu-PyrS2-3Thi-BztA-Hse-NH2], the IC50 in assay [1] was more than 20000 nM; in assay [2], 12 nM.
As to `CC(=O)N1CCC[C@]12CC=CCCCC1(CCCC=CCCCOC(=O)N3CC[C@@](C(=O)N[C@@H](Cc4ccsc4)C(=O)N[C@@H](Cc4csc5ccccc45)C(=O)N[C@@H](CCC(N)=O)C(N)=O)(C3)NC(=O)[C@H](CC(C)C)NC(=O)[C@H](Cc3ccccc3)NC(=O)[C@H](C)NC(=O)[C@H](C)NC(=O)[C@H](CC(=O)O)NC(=O)[C@H](CC(=O)O)NC1=O)NC(=O)[C@H](CO)NC(=O)[C@H](CC(=O)O)NC2=O` (stereo partly drawn) [I-1513, Ac-PL3-Asp-Ser-B5-Asp-Asp-Ala-Ala-Phe-Leu-PyrS2-3Thi-BztA-Gln-NH2], the IC50 is more than 20000 nM in assay [1] and 21 nM in assay [2].
Consider `CC(=O)N1CCC[C@]12CC=CCCCC1(CCCC=CCCCOC(=O)N3CC[C@@](C(=O)N[C@@H](Cc4ccsc4)C(=O)N[C@@H](Cc4csc5ccccc45)C(=O)N[C@@H](CCC(N)=O)C(N)=O)(C3)NC(=O)[C@H](CC(C)C)NC(=O)[C@H](Cc3ccccc3)NC(=O)[C@H](C)NC(=O)[C@H](C)NC(=O)[C@H](CC(=O)O)NC(=O)[C@H](CC(=O)O)NC1=O)NC(=O)[C@H]([C@@H](C)O)NC(=O)[C@H](CC(=O)O)NC2=O` (stereo partly drawn) [I-1515, Ac-PL3-Asp-Thr-B5-Asp-Asp-Ala-Ala-Phe-Leu-PyrS2-3Thi-BztA-Gln-NH2], for which the IC50 in assay [1] is more than 20000 nM; in assay [2], 24 nM.
Turning to `CC(=O)N1CCC[C@]12CC=CCCCC1(CCCC=CCCCOC(=O)N3CC[C@@](C(=O)N[C@@H](Cc4ccsc4)C(=O)N[C@@H](Cc4csc5ccccc45)C(=O)N[C@@H](CCO)C(N)=O)(C3)NC(=O)[C@H](CC(C)C)NC(=O)[C@H](Cc3ccccc3)NC(=O)[C@H](C)NC(=O)[C@H](C)NC(=O)[C@H](CC(=O)O)NC(=O)[C@H](CC(=O)O)NC1=O)NC(=O)[C@H]([C@@H](C)O)NC(=O)[C@H](CC(=O)O)NC2=O` (stereo partly drawn) [I-1516, Ac-PL3-Asp-Thr-B5-Asp-Asp-Ala-Ala-Phe-Leu-PyrS2-3Thi-BztA-Hse-NH2], the IC50 in assay [1] is more than 20000 nM; in assay [2], 30 nM.
The like results for `CC(=O)N1CCC[C@]12CC=CCCCC1(CCCC=CCCCOC(=O)N3CC[C@@](C(=O)N[C@@H](Cc4ccsc4)C(=O)N[C@@H](Cc4csc5ccccc45)C(=O)N[C@@H](CCC(N)=O)C(N)=O)(C3)NC(=O)[C@H](CC(C)C)NC(=O)[C@H](Cc3ccccc3)NC(=O)[C@H](C)NC(=O)[C@H](C)NC(=O)[C@H](CC(=O)O)NC(=O)[C@H](CC(=O)O)NC1=O)NC(=O)[C@H](CC(N)=O)NC(=O)[C@H](CC(=O)O)NC2=O` (stereo partly drawn) [I-1517, Ac-PL3-Asp-Asn-B5-Asp-Asp-Ala-Ala-Phe-Leu-PyrS2-3Thi-BztA-Gln-NH2] were, in that order, more than 20000 nM and 32 nM.
In the same order, the values of `CC(=O)N1CCC[C@]12CC=CCCCC1(CCCC=CCCCOC(=O)N3CC[C@@](C(=O)N[C@@H](Cc4ccsc4)C(=O)N[C@@H](Cc4csc5ccccc45)C(=O)N[C@@H](CCC(N)=O)C(N)=O)(C3)NC(=O)[C@H](CC(C)C)NC(=O)[C@H](Cc3ccccc3)NC(=O)[C@H](C)NC(=O)[C@H](C)NC(=O)[C@H](CC(=O)O)NC(=O)[C@H](CC(=O)O)NC1=O)NC(=O)[C@H](CC1CCCCC1)NC(=O)[C@H](CC(=O)O)NC2=O` (stereo partly drawn) [I-1519, Ac-PL3-Asp-Cha-B5-Asp-Asp-Ala-Ala-Phe-Leu-PyrS2-3Thi-BztA-Gln-NH2] are 12800 nM and 10 nM.
In the same order, the values of `CC(=O)N1CCC[C@]12CC=CCCCC1(CCCC=CCCCOC(=O)N3CC[C@@](C(=O)N[C@@H](Cc4ccsc4)C(=O)N[C@@H](Cc4csc5ccccc45)C(=O)N[C@@H](CCO)C(N)=O)(C3)NC(=O)[C@H](CC(C)C)NC(=O)[C@H](Cc3ccccc3)NC(=O)[C@H](C)NC(=O)[C@H](C)NC(=O)[C@H](CC(=O)O)NC(=O)[C@H](CC(=O)O)NC1=O)NC(=O)[C@H](CC1CCCCC1)NC(=O)[C@H](CC(=O)O)NC2=O` (stereo partly drawn) [I-1520, Ac-PL3-Asp-Cha-B5-Asp-Asp-Ala-Ala-Phe-Leu-PyrS2-3Thi-BztA-Hse-NH2] are 17400 nM and 11 nM.
In the case of `CCCC[C@@H]1NC(=O)[C@H](CC(=O)O)NC(=O)[C@]2(CC=CCCCC3(CCCC=CCCCCCC[C@@](C)(C(=O)N[C@@H](Cc4ccccc4)C(=O)N[C@@H](Cc4csc5ccccc45)C(=O)N[C@@H](CCC(N)=O)C(N)=O)NC(=O)[C@H](CCC(N)=O)NC(=O)[C@H](Cc4ccccc4)NC(=O)[C@H](C)NC(=O)[C@H](C)NC(=O)[C@H](CCC(=O)O)NC(=O)[C@H](CC(=O)O)NC3=O)NC1=O)CCCN2C(C)=O` (stereo partly drawn) [I-1521, Ac-PL3-Asp-nLeu-B5-Asp-Glu-Ala-Ala-Phe-Gln-S8-Phe-BztA-Gln-NH2], the IC50 was 6000 nM in assay [1] and 16 nM in assay [2].

As usually defined, the IC50 is the point on the concentration scale where inhibition reaches its midpoint.
